Values of other authors as cited in US12201732B2, “Transdermal patches for hangover minimization and/or recocery, and/or sleep improvement” (GameChanger Patch Co., priority 2020, dated 2025).

How the values were obtained:
[1] = recent study
[2] = oral supplementation

Structure (SMILES) | effect on hangover [1] | share metabolized by the human stomach in the first pass [2] [%]
N[C@@H](CS)C(=O)O [L-cysteine] | mitigate hangover effects | 
N[C@@H](CCC(=O)N[C@@H](CS)C(=O)NCC(=O)O)C(=O)O [glutathione] |  | ≥ 90
